Test system: siRNA
Assay: Association of ferritin with siRNA, gel
Assay type: binding
Protocol: 1 ml reaction containing 2 mg Ft and 4 ug siRNA in DPBS, pH lowered to values as indicated (2.5, 3.2, 4.4, 5.6 and 6.8, respectively). Samples were incubated 15 min in RT, then NaOH was added to adjust pH to neutral (pH 7). Non-associated free siRNA was removed by 4 centrifugation steps on Amicons with 100 kDa cut-off.

Q11E mutant: Examples 3-8 ferritin variant based on Q11E with added K54E, K72E, K87Q, K144E, C91S, C103S and C131S
association with siRNA (incubated in pH 2.4 and 3.2): not | association with siRNA (incubated in pH range 4.4 to 6.8, 2 mg Ft and 4 ug siRNA): associated with siRNA

— patent US20240158472A1, “FERRITIN VARIANTS WITH INCREASED STABILITY AND COMPLEXATION ABILITY” (Cellis AG, priority 2021, published 2024)
